Where two headings read alike, the source gives them in different places.
Legend:
recombinant human ICAM-1 = test: Flow chamber: T cell-rolling on recombinant ICAM-1, semi short-term conditions; format: cell-based; conditions: freshly isolated T cells, +AMG 103 10 ng/ml, t=45 min; coated at 12.5 μg/ml, with blocking; control −AMG 103 383±144
Experimental: Recombinant proteins (rhICAM-1 #ADP4-050, rhVCAM-1 #ADP5-050 or rhP-selectin #ADP3-050, R&D Systems) were dissolved in ddH2O according to the manufacturer's instructions. Prior to rolling experiments recombinant proteins were diluted in Dulbecco's PBS with Ca^2+ and Mg^2+ (#L1815, Biochrom) and coated onto a μ-slide VI^0.4 Luer ibiTreat (#80606, ibidi) over night at 4° C. Before usage slides were washed three times with Dulbecco's PBS and blocked where indicated with 20% FBS (#10270, Gibco) in PBS for 2 h at room temperature. Blocking solution was replaced by RPMI 1640 medium (#FG1215, Biochrom) without supplements.
Isolation and characterization of human peripheral blood mononuclear cells (PBMC) and T cells from blood were performed as described in Example 2 (p. 48, 1-31).
For rolling experiments using freshly isolated T cells, these cells were resuspended in RPMI 1640 medium (#FG1215, Biochrom) without supplements to a final concentration of 1×10^6 cells/ml at the start of the experiment (t=0 min; addition of 10 ng/ml Blinatumomab (AMG 103)) and incubated for 35 min at 37° C. and 5% CO2. Cells were then filled in a perfusion set “white” (#10963, ibidi) which was connected to both a fluidic unit and the μ-slide and image sequences of 45 sec duration were recorded at t=40 min, 45 min, and 50 min as described in Example 2 (p. 50, 18-23). […]

patients = conditions: cited from earlier work

## Blinatumomab: recombinant CD19×CD3 bispecific scFv antibody consisting of four immunoglobulin variable domains assembled into a single polypeptide chain
Recombinant human ICAM-1
  mean T cell-rolling velocity±SD: 314±79 μm/sec
patients; B-NHL
  effect on malignant B cells in bone marrow and liver: clearance of malignant B cells from bone marrow and liver
patients; B-NHL, dose level of 0.015 mg/m^2/day
  clinical response: Partial and complete responses were first observed
patients; B-NHL, doses as low as 0.005 mg/m^2/day civ infusion over four weeks
  effect on B lymphoma cells in peripheral blood: complete and sustained elimination of B lymphoma cells in peripheral blood
patients; B-precursor ALL, minimal residual disease and relapsed or refractory, four-week civ infusions, 0.015 mg/m^2/day
  clinical response: hematological complete response
patients; majority of B-NHL patients, dose level of 0.06 mg/m^2/day
  clinical response: substantial tumor regression

Source: patent US9688760B2, “Anti-leukocyte adhesion for the mitigation of potential adverse events caused by CD3-specific binding domains” (AMGEN RESEARCH (MUNICH) GMBH, priority 2013, dated 2017)
